PMC5963591, “Bitopic Binding Mode of an M1 Muscarinic Acetylcholine Receptor Agonist Associated with Adverse Clinical Trial Outcomes” (Molecular Pharmacology, 2018)

Experiments:
human M1 mAChR [1] = target: T1, human M1 mAChR (Homo sapiens, UniProt P11229); settings: 20 nM [^3H]-GSK1034702
T1 sequence (P11229 1-460): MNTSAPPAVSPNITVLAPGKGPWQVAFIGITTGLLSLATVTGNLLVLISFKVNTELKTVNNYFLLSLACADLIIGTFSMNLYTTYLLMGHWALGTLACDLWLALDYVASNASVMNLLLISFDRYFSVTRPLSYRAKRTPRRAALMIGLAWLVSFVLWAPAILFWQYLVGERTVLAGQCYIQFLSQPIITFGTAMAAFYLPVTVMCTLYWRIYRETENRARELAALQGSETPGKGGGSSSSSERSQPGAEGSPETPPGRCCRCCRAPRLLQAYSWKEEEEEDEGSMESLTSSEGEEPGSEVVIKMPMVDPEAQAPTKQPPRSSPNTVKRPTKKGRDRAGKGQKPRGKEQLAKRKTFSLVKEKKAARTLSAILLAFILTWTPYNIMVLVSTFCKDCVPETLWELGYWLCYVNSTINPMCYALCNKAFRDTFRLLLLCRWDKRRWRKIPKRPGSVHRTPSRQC

M4 mAChR = target: T2, M4 mAChR (Homo sapiens, UniProt P08173); experiment: ERK1/2 phosphorylation, CHO cells, M4; type: cell-based
T2 construct: expressed in transfected cells; host or cells: CHO
T2 sequence (P08173 whole entry): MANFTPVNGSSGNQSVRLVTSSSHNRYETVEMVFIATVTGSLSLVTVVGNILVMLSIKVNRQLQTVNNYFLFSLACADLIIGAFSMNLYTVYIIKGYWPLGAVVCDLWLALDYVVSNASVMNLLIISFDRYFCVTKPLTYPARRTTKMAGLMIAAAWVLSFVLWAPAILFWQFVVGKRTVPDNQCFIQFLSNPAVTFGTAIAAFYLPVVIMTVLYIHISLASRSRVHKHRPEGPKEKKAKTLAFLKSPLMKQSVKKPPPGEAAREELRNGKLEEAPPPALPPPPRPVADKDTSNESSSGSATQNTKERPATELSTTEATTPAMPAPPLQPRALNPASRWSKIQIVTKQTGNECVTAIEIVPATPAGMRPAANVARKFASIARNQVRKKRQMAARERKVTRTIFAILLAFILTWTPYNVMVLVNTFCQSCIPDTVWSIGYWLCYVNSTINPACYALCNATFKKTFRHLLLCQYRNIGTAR

M5 mAChR = target: T3, M5 mAChR (Homo sapiens, UniProt P08912); experiment: ERK1/2 phosphorylation, CHO cells, M5; type: cell-based
T3 construct: expressed in transfected cells; host or cells: CHO
T3 sequence (P08912 whole entry): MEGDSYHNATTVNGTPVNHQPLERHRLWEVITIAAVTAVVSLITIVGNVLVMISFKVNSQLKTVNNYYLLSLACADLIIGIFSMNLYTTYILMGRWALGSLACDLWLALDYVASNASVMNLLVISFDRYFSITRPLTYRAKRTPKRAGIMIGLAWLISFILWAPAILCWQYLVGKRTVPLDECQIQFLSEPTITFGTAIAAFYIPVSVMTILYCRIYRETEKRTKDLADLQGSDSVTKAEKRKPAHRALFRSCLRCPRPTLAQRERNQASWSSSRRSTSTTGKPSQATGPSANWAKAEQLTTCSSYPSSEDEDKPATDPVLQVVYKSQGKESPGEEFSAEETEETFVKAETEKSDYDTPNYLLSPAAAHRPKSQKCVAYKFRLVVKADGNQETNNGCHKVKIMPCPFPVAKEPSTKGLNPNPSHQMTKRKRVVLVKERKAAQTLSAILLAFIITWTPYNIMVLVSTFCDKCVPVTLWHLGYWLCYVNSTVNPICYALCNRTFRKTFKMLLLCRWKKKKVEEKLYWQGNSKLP

human mAChR M4 = target: T4, human mAChR M4 (Homo sapiens, UniProt P08173); experiment: [3H]-NMS competition binding, CHO membranes, M4
T4 construct: purchased PerkinElmer; host or cells: CHO
T4 sequence (P08173 whole entry): as the sequence (P08173 whole entry) above
Method: (§1) For competition binding experiments at M1, M2, M3, M4, and M5 mAChRs, CHO membranes were purchased from PerkinElmer. All experiments were performed in assay buffer of the following composition: 20 mM HEPES, 100 mM NaCl, and 10 mM MgCl2, pH 7.5, and used 10 µg protein/well in a total assay volume of 1 ml using deep well blocks. […] All assay incubations were initiated by the addition of membrane suspensions and deep well blocks were shaken for 5 minutes to ensure complete mixing. Incubation was then carried out for 2 hours at 21°C. Binding reactions were terminated by rapid filtration through GF/A filters (PerkinElmer) presoaked with 0.5% (w/v) polyethylenimine for 1 hour. Filters were then washed three times with 1 ml ice-cold assay buffer.
(§2) Inhibition binding data were curve-fit using GraphPad Prism 6 to derive the potency (IC50) of the test compound. The equilibrium dissociation constant (KI) of the test compound was then calculated with the Cheng–Prusoff equation: KI = IC50/[1 + ([L]/KD)] using the KD value derived separately from saturation binding studies.

[2] = Mouse pharmacokinetics, unbound plasma and brain concentrations; type: in vivo; settings: mice, 30 minutes after i.p. administration
Method: Pharmacokinetic analyses were conducted as previously described ([Witkin et al., 2017]). Compounds were administered via intraperitoneal injection (in 5% glucose) 30 minutes prior to blood collection. Mice were anesthetized with 3% isoflurane (2 l/min), and blood was collected by cardiac puncture of the left ventricle. Blood was immediately transferred to EDTA tubes and centrifuged at 1000g for 10 minutes at 4°C; the supernatant was collected and frozen. Brains from each mouse were also dissected and snap-frozen on dry ice.
Brain samples were homogenized in three volumes of methanol/water [1:4 (v/v)] by weight. A 25-μl aliquot of each study sample, calibration standard, and control sample was added to a 96-well plate and mixed with 180 μl acetonitrile/methanol [1:1 (v/v)] containing internal standard. The samples were subsequently centrifuged, and the resulting supernatants were diluted 12.5-fold with methanol/water [1:1 (v/v)] prior to analyzing 10-μl aliquots by liquid chromatography–tandem mass spectrometry as previously described ([Bradley et al., 2017]).

human M1 mAChR [3] = target: T1, human M1 mAChR; experiment: Equilibrium [3H]-NMS binding, CHO Flp-In cell monolayers, wild-type M1; parameters: expressed in transfected cells; host or cells: CHO Flp-In
Method: (§3) Prior to the experiment, cells were washed with 100 μl phosphate-buffered saline. […] Binding was terminated by rapid aspiration followed by two washes with 200 μl ice-cold 0.9% NaCl. Bound radioactivity was determined by liquid scintillation (Ultima Gold; PerkinElmer, Boston, MA) counting. Nonspecific binding was determined in the presence of 10 μM atropine.
as §2

human mAChR M1 = target: T5, human mAChR M1 (Homo sapiens, UniProt P11229); experiment: [3H]-NMS competition binding, CHO membranes, M1
T5 construct: purchased PerkinElmer; host or cells: CHO
Method: as §1, §2

[4] = target: T6, M2 mAChR (isolated rat atria) (Rattus norvegicus, UniProt P10980); experiment: Isolated rat atria, negative inotropic response; settings: single experiment
T6 construct: from tissue; host or cells: left atria of adult Wistar rats
T6 sequence (P10980 1-466): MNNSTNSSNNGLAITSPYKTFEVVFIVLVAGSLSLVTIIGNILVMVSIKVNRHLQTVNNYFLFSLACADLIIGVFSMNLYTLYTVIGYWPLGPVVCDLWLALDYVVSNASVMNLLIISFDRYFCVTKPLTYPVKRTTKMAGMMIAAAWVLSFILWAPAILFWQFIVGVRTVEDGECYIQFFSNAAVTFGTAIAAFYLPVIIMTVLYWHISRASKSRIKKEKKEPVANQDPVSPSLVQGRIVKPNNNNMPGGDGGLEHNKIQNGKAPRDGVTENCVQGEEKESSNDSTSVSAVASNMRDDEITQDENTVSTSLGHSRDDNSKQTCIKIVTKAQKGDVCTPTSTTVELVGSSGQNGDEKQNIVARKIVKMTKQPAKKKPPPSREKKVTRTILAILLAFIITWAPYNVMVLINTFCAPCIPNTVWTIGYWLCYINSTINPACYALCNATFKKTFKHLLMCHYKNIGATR
Method: Adult Wistar rats were humanely euthanized and the left atria and the ileum were placed in an organ bath containing oxygenated Tyrode solution. Measurement of negative inotropic responses in atria or contraction of ileum was performed as described by [Lambrecht et al. (1989)]. For atrial responses, ligands were administered for 5 minutes at 32°C in McEwen’s buffer (pH 7.4) in a bath volume of 10 ml. […] For rat ileum experiments, ligands were administered for 5 minutes at 32°C in Krebs’ buffer (pH 7.4) in a bath volume of 10 ml. Contraction of ileum as a percentage of methacholine-induced contraction was measured, and antagonistic effects were measured by inhibition of methacholine-induced responses.

humanized M1 DREADD = target: T7, humanized M1 DREADD (Homo sapiens, UniProt P11229, A196G/Y106C); experiment: Equilibrium [3H]-NMS binding, CHO Flp-In cell monolayers, M1 DREADD
T7 construct: expressed in transfected cells; host or cells: CHO Flp-In
T7 sequence (P11229 whole entry Y106C/A196G): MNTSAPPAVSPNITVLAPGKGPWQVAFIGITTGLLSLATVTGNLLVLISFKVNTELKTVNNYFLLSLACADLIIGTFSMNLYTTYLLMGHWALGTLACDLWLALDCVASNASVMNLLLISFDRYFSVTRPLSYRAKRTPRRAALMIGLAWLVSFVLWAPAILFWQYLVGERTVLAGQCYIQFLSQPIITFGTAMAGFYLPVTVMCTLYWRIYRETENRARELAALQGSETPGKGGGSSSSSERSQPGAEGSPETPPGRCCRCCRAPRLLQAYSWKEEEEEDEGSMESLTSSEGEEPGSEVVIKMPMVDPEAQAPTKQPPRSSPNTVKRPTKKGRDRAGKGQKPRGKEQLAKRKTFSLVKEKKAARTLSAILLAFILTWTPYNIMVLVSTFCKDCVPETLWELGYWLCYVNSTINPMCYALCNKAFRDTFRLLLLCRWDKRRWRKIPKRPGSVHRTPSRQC
Method: as §3, §2

human mAChR M5 = target: T8, human mAChR M5 (Homo sapiens, UniProt P08912); experiment: [3H]-NMS competition binding, CHO membranes, M5
T8 construct: purchased PerkinElmer; host or cells: CHO
T8 sequence (P08912 whole entry): as the sequence (P08912 whole entry) above
Method: as §1, §2

displacement of specific [^3H]-GSK1034702 binding (human M1 mAChR [1]): fully displaced
functional activity in ERK1/2 phosphorylation (M4 mAChR): partial agonist activity
functional activity in ERK1/2 phosphorylation (M5 mAChR): partial agonist activity
Ki (human mAChR M4): 2 µM
free brain concentration versus dose [2]: increase linearly with escalating doses
Ki (human M1 mAChR [3]): 0.316 µM
inhibition of [^3H]-NMS binding (human M1 mAChR [3]; [^3H]-NMS 0.5 nM, CHO Flp-In cell monolayers): fully inhibited
Ki (human mAChR M1): 1 µM
IC50 ([4]; methacholine 1 μM, read-out: IC50, inhibition of methacholine-induced responses in rat atria): 8 µM
potency, negative inotropic response in rat atria [4]: micromolar potency
Ki (humanized M1 DREADD): 1 µM
Ki (human mAChR M5): 6.31 µM
SMILES: Cc1cc(F)c2[nH]c(=O)n(C3CCN(C4CCOCC4)CC3)c2c1 [GSK1034702, 7-fluoro-5-methyl-3-[1-(oxan-4-yl)piperidin-4-yl]-1H-benzimidazol-2-one]
maximal negative inotropic response in rat atria ([4]; relative to methacholine): maximal response equivalent to that of methacholine
